# Measurements from the supplement of paper PMC11208160.
# Test: recombinant UMI read abundance after kanamycin selection (control-corrected) (log10(CPM+1)); higher = more efficient recombination; extreme values may be limits of the assay; sequences stand for … in AGTGCAGAGAAAATCGGCCAGTTTTCTCTGCCTGCAGTCCGCATGCCGTGGGACCCCTTGGGTTCTAACCTGTTGCCTAGATTTATGCAGCGGACTGCCTTTCTCCCAAAGTGATAAACCGG…AGGTTGGTTTCACT; site = the 11-nt donor
# In short: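 Each donor and donor-binding-loop pair was tracked by a 12-nt UMI on a plasmid carrying a promoterless kanamycin gene. With a second plasmid supplying a fixed target and T7-inducible IS621 bridge recombinase, the pool was plated in Escherichia coli on IPTG (0.07 mM) plus kanamycin or unselected. Sequencing of recombinant UMIs across the donor–target junction gave counts expressed as log10(CPM+1) after replicate averaging and control-derived scaling.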
row,Sequence,recombinant UMI read abundance (log10)
1,CACTTGGCATGGACCGGTTTTCCCGGTAATCCGTATTTGGA (site CACATGGCTTC),0.0226
2,CACTTGGCATGGACCGGTTTTCCCGGTAATCCGTATTTGGA (site CACCTGGCTTC),0.612
3,CACTTGGCATGGACCGGTTTTCCCGGTAATCCGTATTTGGA (site CACGTGGCTTC),0.024
4,CACTTGGCATGGACCGGTTTTCCCGGTAATCCGTATTTGGA (site CACTAGGCTTC),0.104
5,CACTTGGCATGGACCGGTTTTCCCGGTAATCCGTATTTGGA (site CACTCGGCTTC),0.0123
6,CACTTGGCATGGACCGGTTTTCCCGGTAATCCGTATTTGGA (site CACTGGGCTTC),0.0362
7,CACTTGGCATGGACCGGTTTTCCCGGTAATCCGTATTTGGA (site CACTTAGCTTC),1.14
8,CACTTGGCATGGACCGGTTTTCCCGGTAATCCGTATTTGGA (site CACTTCGCTTC),0.0367
9,CACTTGGCATGGACCGGTTTTCCCGGTAATCCGTATTTGGA (site CACTTGACTTC),0.231
10,CACTTGGCATGGACCGGTTTTCCCGGTAATCCGTATTTGGA (site CACTTGCCTTC),0.407
11,CACTTGGCATGGACCGGTTTTCCCGGTAATCCGTATTTGGA (site CACTTGGCTAC),0.013
12,CACTTGGCATGGACCGGTTTTCCCGGTAATCCGTATTTGGA (site CACTTGGCTCC),0.381
13,CACTTGGCATGGACCGGTTTTCCCGGTAATCCGTATTTGGA (site CACTTGGCTGC),0.96
14,CACTTGGCATGGACCGGTTTTCCCGGTAATCCGTATTTGGA (site CACTTGGCTTA),1.12
15,CACTTGGCATGGACCGGTTTTCCCGGTAATCCGTATTTGGA (site CACTTGGCTTC),0.91
16,CACTTGGCATGGACCGGTTTTCCCGGTAATCCGTATTTGGA (site CACTTGGCTTG),0.926
17,CACTTGGCATGGACCGGTTTTCCCGGTAATCCGTATTTGGA (site CACTTGGCTTT),1.77
18,CACTTGGCATGGACCGGTTTTCCCGGTAATCCGTATTTGGA (site CACTTGTCTTC),0.78
19,CACTTGGCATGGACCGGTTTTCCCGGTAATCCGTATTTGGA (site CACTTTGCTTC),0.00347
20,CACTTGGCATGGACCGGTTTTCCCGGTAATCCGTATTTGGA (site CAGTTGGCTTC),0.28
21,CACTTGGCATGGACCGGTTTTCCCGGTAATCCGTATTTGGA (site CATTTGGCTTC),0.342
22,CACTTGGCATGGACCGGTTTTCCCGGTAATCCGTATTTGGA (site CCCTTGGCTTC),0.304
23,CACTTGGCATGGACCGGTTTTCCCGGTAATCCGTATTTGGA (site CGCTTGGCTTC),0.439
24,CACTTGGCATGGACCGGTTTTCCCGGTAATCCGTATTTGGA (site CTCTTGGCTTC),0.0309
25,CACTTGGCATGGACCGGTTTTCCCGGTAATCCGTATTTGGA (site GACTTGGCTTC),0.112

row,Sequence,recombinant UMI read abundance (log10)
1,CACTTGGCATGGACCGGTTTTCCCGGTAATCCGTATTTGGA (site TACTTGGCTTC),0.275
2,CACTTGGCATGGACCGGTTTTCCCGGTAATCCGTATTTGGC (site CACTTGGCTAC),0.012
3,CACTTGGCATGGACCGGTTTTCCCGGTAATCCGTATTTGGC (site CACTTGGCTCC),0.0109
4,CACTTGGCATGGACCGGTTTTCCCGGTAATCCGTATTTGGC (site CACTTGGCTGC),1.64
5,CACTTGGCATGGACCGGTTTTCCCGGTAATCCGTATTTGGC (site CACTTGGCTTC),0.166
6,CACTTGGCATGGACCGGTTTTCCCGGTAATCCGTATTTGGG (site CACTTGGCTAC),0.0307
7,CACTTGGCATGGACCGGTTTTCCCGGTAATCCGTATTTGGG (site CACTTGGCTCC),0.0801
8,CACTTGGCATGGACCGGTTTTCCCGGTAATCCGTATTTGGG (site CACTTGGCTGC),0
9,CACTTGGCATGGACCGGTTTTCCCGGTAATCCGTATTTGGG (site CACTTGGCTTC),0.0398
10,CACTTGTCATGGACCGGTTTTCCCGGTAATCCGTATTTGGA (site CACTTGACTTC),0.0147
11,CACTTGTCATGGACCGGTTTTCCCGGTAATCCGTATTTGGA (site CACTTGCCTTC),0.0181
12,CACTTGTCATGGACCGGTTTTCCCGGTAATCCGTATTTGGA (site CACTTGGCTTC),0.00318
13,CACTTGTCATGGACCGGTTTTCCCGGTAATCCGTATTTGGA (site CACTTGTCTTC),1.84
14,CAGAAGTCATGGACCGGTTTTCCCGGTAATCCGTATTTGAC (site CAGAAGTCTGT),1.46
15,CAGAATACATGGACCGGTTTTCCCGGTAATCCGTATTTGCA (site AAGAATACTTG),0.616
16,CAGAATACATGGACCGGTTTTCCCGGTAATCCGTATTTGCA (site CAGAATACTTG),2.15
17,CAGAATACATGGACCGGTTTTCCCGGTAATCCGTATTTGCA (site GAGAATACTTG),0
18,CAGAATACATGGACCGGTTTTCCCGGTAATCCGTATTTGCA (site TAGAATACTTG),0.38
19,CAGAATCCATGGACCGGTTTTCCCGGTAATCCGTATTTGTC (site CAGAATCCTGA),2.5
20,CAGAATCCATGGACCGGTTTTCCCGGTAATCCGTATTTGTC (site CGGAATCCTAA),0
21,CAGACATCATGGACCGGTTTTCCCGGTAATCCGTATTTGAG (site CAGACATCTCT),3.06
22,CAGACCGCATGGACCGGTTTTCCCGGTAATCCGTATTTGTC (site CAGACCGCTGA),3.23
23,CAGATGGCATGGACCGGTTTTCCCGGTAATCCGTATTTGTA (site CAGATGGCTTA),2.68
24,CAGCACGCATGGACCGGTTTTCCCGGTAATCCGTATTTGGG (site AAGCACGCTCC),0.012
25,CAGCACGCATGGACCGGTTTTCCCGGTAATCCGTATTTGGG (site CAGCACGCTCC),0.512

row,Sequence,recombinant UMI read abundance (log10)
1,CAGCACGCATGGACCGGTTTTCCCGGTAATCCGTATTTGGG (site GAGCACGCTCC),0.0111
2,CAGCACGCATGGACCGGTTTTCCCGGTAATCCGTATTTGGG (site TAGCACGCTCC),0.0838
3,CAGCAGCCATGGACCGGTTTTCCCGGTAATCCGTATTTGGT (site CAGCAGCCTAC),0.642
4,CAGCATGCATGGACCGGTTTTCCCGGTAATCCGTATTTGAA (site CAGCATGCTTT),2.7
5,CAGCCAACATGGACCGGTTTTCCCGGTAATCCGTATTTGCA (site CAGCCAACTTG),2.34
6,CAGCGGTCATGGACCGGTTTTCCCGGTAATCCGTATTTGCC (site CAGCGGTCTGG),2.76
7,CAGCTCGCATGGACCGGTTTTCCCGGTAATCCGTATTTGTG (site CAGCTCGCTCA),0.0273
8,CAGCTGGCATGGACCGGTTTTCCCGGTAATCCGTATTTGAT (site CAGCTGGCTAT),1.63
9,CAGGCATCATGGACCGGTTTTCCCGGTAATCCGTATTTGCA (site CAGGCATCTTG),2.53
10,CAGGCCGCATGGACCGGTTTTCCCGGTAATCCGTATTTGAG (site CAGGCCGCTCT),0.33
11,CAGGGGTCATGGACCGGTTTTCCCGGTAATCCGTATTTGAA (site CAGGGGTCTTT),3.02
12,CAGGGTCCATGGACCGGTTTTCCCGGTAATCCGTATTTGGA (site CAGGGTCCTTC),0.288
13,CAGGTCACATGGACCGGTTTTCCCGGTAATCCGTATTTGGG (site CAAGTCACTCC),0.0193
14,CAGGTCACATGGACCGGTTTTCCCGGTAATCCGTATTTGGG (site CACGTCACTCC),0.00865
15,CAGGTCACATGGACCGGTTTTCCCGGTAATCCGTATTTGGG (site CAGGTCACTCC),0.0396
16,CAGGTCACATGGACCGGTTTTCCCGGTAATCCGTATTTGGG (site CATGTCACTCC),0.0163
17,CAGGTCACATGGACCGGTTTTCCCGGTAATCCGTATTTGTC (site CAGGTCACTGA),2.7
18,CAGGTGACATGGACCGGTTTTCCCGGTAATCCGTATTTGTA (site CAGGTGACTTA),1.83
19,CAGGTGGCATGGACCGGTTTTCCCGGTAATCCGTATTTGCG (site CAGGTGGCTCG),1.88
20,CAGTAGACATGGACCGGTTTTCCCGGTAATCCGTATTTGGG (site CAGTAGACTCC),0.653
21,CAGTAGACATGGACCGGTTTTCCCGGTAATCCGTATTTGGG (site CAGTCGACTCC),0.00641
22,CAGTAGACATGGACCGGTTTTCCCGGTAATCCGTATTTGGG (site CAGTGGACTCC),0.00992
23,CAGTAGACATGGACCGGTTTTCCCGGTAATCCGTATTTGGG (site CAGTTGACTCC),0.033
24,CAGTATCCATGGACCGGTTTTCCCGGTAATCCGTATTTGTT (site CAGTATCCTAA),1.87
25,CAGTATCCATGGACCGGTTTTCCCGGTAATCCGTATTTGTT (site CGGAATCCTAA),0.00316
